{
  "source": "paper PMC8453848",
  "about": "“Effect of GLPG1205, a GPR84 Modulator, on CYP2C9, CYP2C19, and CYP1A2 Enzymes: In Vitro and Phase 1 Studies” (Clinical Pharmacology in Drug Development, 2021)",
  "key": {"[1]": {"assay": "Phase 1 drug-drug interaction study: plasma PK of GLPG1205", "format": "in vivo, human", "details": "for AUC: 100 mg", "method": "The protein precipitated mixture was centrifuged at approximately 14 000 g for 15 minutes at room temperature. The clear supernatant was diluted with dilution solvent (water with 0.05% of trifluoroacetic acid) and then transferred into LC-MS plates. […] Chromatographic separation was performed on a Kinetex C18 column (50 x 3.0 mm, 2.6 µm from Phenomenex, Torrance, CA, USA) set at 40°C by using a Nexera high performance liquid chromatography (HPLC) system (Shimadzu, Kyoto, Japan) in isocratic elution mode."}, "CYP1A2 mRNA": {"tested_on": "CYP1A2 mRNA", "assay": "in vitro", "details": "human, hepatocytes, 24 h", "method": "(§1) GLPG1205 was incubated with monolayer cultures of fresh human hepatocytes from 3 individual donors for 24 hours (messenger ribonucleic acid [mRNA] analysis) or 48 hours (enzyme activity) at 6 different concentrations: 0.5, 1, 5, 10, 50, and 100 μM (0.19, 0.38, 1.89, 3.78, 18.9, and 37.8 μg/mL, respectively). All incubations contained 0.4% dimethylsulfoxide (DMSO). Incubation with 50 μM omeprazole containing 0.1% DMSO was used as a positive control. Incubations with 0.1% and 0.4% DMSO alone were used as negative controls.\n(§2) Following a 24‐hour incubation, CYP1A2 mRNA was quantified using real‐time quantitative reverse transcription polymerase chain reaction.\n(§3) A concentration‐dependent increase in mRNA of <100% was considered a negative finding when the increase in mRNA was less than 20% of the response of the positive control.\n(§4) Incubation for CYP1A2 Induction Experiment The incubations for enzyme activity measurements were performed with cell monolayers in 96-well plates and the incubations for mRNA measurements were performed with cell monolayers in 24-well plates.^3\n(§5) GLPG1205 was incubated with monolayer culture of human fresh hepatocytes from 3 individual donors for 24 or 48 hours, for messenger ribonucleic acid (mRNA) analysis and enzyme activity, respectively, at 6 different concentrations (n = 3): 0.1, 0.5, 1, 5, 10 and 50 µM (0.038, 0.19, 0.38, 1.89, 3.78 and 18.9 µg/mL, respectively). […]\n(§6) mRNA Analysis At the end of the 24-hour incubation period, the incubation medium was removed and the cell monolayers were washed twice with 500 µL phosphate buffered saline. […] Total RNA and RNA quality were assessed by measuring 260/280 nm and 260/230 nm absorbance ratios. RNA concentrations were used to normalize the quantity of RNA used for the reverse transcriptase assay. […]\n(§7) Quantitative real-time reverse transcription polymerase chain reaction (qRT-PCR) was performed using SYBRGreen® validated primers for CYP1A2.^3 The housekeeping gene glyceraldehyde 3-phosphate dehydrogenase (GAPDH) was analyzed in parallel as the control gene. […]\n(§8) The fold induction (FI) was determined as: […]"}, "CYP1A2": {"tested_on": "CYP1A2", "assay": "in vitro", "details": "human", "method": "as §1, §2, §3, §4, §5, §6, §7, §8"}, "[2]": {"details": "cited from earlier work"}, "CYP3A4": {"tested_on": "CYP3A4", "design": "method as in PMID 33960725, PMID 29780235", "details": "cortisol:6β‐hydroxycortisol ratio in urine; cited from earlier work"}, "[3]": {"assay": "Phase 1 drug-drug interaction study: safety and tolerability (adverse events)", "from_the_text": "The safety assessment was based on adverse events (AEs), vital signs, 12‐lead electrocardiogram (ECG), physical examinations, and safety laboratory tests. AEs were monitored for the duration of the study. All safety assessments were undertaken at the screening visit, on days 13 and 14, and at the follow‐up visit. In addition, safety assessments were undertaken on day 1 (vital signs, 12‐lead ECG, and clinical laboratory tests) and day 7 (physical examination, vital signs, and clinical laboratory tests).\nThe safety population comprised all randomized subjects who received at least 1 dose of study drug."}, "[4]": {"details": "once‐daily oral dosing for 14 days"}, "[5]": {"details": "GLPG1205 100 mg once a day + CYP450 substrates, n = 14"}, "[6]": {"details": "GLPG1205 100 mg once a day alone, n = 14"}},
  "note": "Like-named read-outs stand apart in the source and are kept apart here.",
  "data": [
    {"smiles": "O=c1nc(OC[C@@H]2COCCO2)cc2n1CCc1cc(C#CC3CC3)ccc1-2", "note": "[GLPG1205, 9‐cyclopropylethynyl‐2‐[(S)‐1‐(1,4)dioxan‐2‐ylmethoxy]‐6,7‐dihydropyrimido[6,1‐a]isoquinolin‐4‐one]", "values": [
      {"measurement": "day by which steady state was reached", "setting": "[1]; GLPG1205 100 mg once a day, trough plasma concentrations", "result": "≤ 9", "unit": "days"},
      {"measurement": "AUC", "setting": "[1]; male, human, plasma, oral, day 13, GLPG1205 100 mg once a day, n = 5, arithmetic mean (CV%), read-out: AUC0‐inf", "result": 373, "unit": "µg·h/mL"},
      {"measurement": "AUC", "setting": "[1]; male, human, plasma, oral, day 13, GLPG1205 100 mg once a day, n = 14, arithmetic mean (CV%), read-out: AUC0‐t", "result": 395, "unit": "µg·h/mL"},
      {"measurement": "Cmax", "setting": "[1]; male, human, plasma, oral, day 13, GLPG1205 100 mg once a day, n = 14, arithmetic mean (CV%)", "result": 5010, "unit": "ng/mL"},
      {"measurement": "half-life", "setting": "[1]; male, human, plasma, oral, day 13, GLPG1205 100 mg once a day, n = 14, arithmetic mean (CV%), read-out: t1/2, λz (converted)", "result": 74.1, "unit": "h"},
      {"measurement": "tmax", "setting": "[1]; male, human, plasma, oral, day 13, GLPG1205 100 mg once a day, n = 14, median (min‐max)", "result": 2, "unit": "h"},
      {"measurement": "increase in CYP1A2 mRNA expression compared with the vehicle control", "setting": "CYP1A2 mRNA", "result": "greater than 100%"},
      {"measurement": "fold induction at 24 h, 1 µM", "setting": "CYP1A2; CYP1A2 mRNA, fold induction, mean (SD)", "result": "6.12 ± 0.65"},
      {"measurement": "fold induction at 24 h, 1 µM", "setting": "CYP1A2; maximum fold induction of CYP1A2 mRNA", "result": 6},
      {"measurement": "median time to maximum plasma concentration (tmax)", "setting": "[2]; healthy male subjects", "result": 4, "unit": "h"},
      {"measurement": "maximum tolerated dose", "setting": "[2]; healthy subjects", "result": 100, "unit": "mg once a day"},
      {"measurement": "Cmax", "setting": "[2]; multiple doses of GLPG1205 100 mg once a day, steady state", "result": 3910, "unit": "ng/mL"},
      {"measurement": "day by which steady‐state plasma concentration was reached", "setting": "[2]; [4]", "result": "≤ 10", "unit": "days"},
      {"measurement": "elimination half‐life, average", "setting": "[2]; [4]", "result": 88.6, "unit": "h"},
      {"measurement": "CYP3A4 induction", "setting": "CYP3A4", "result": "did not induce CYP3A4"},
      {"measurement": "Any TEAE", "setting": "[3]; [5]", "result": "3 (21.4) n (%)"},
      {"measurement": "Gastrointestinal disorders", "setting": "[3]; [5]", "result": "0 n (%)"},
      {"measurement": "General disorders and general administration‐site conditions", "setting": "[3]; [5]", "result": "0 n (%)"},
      {"measurement": "Headache", "setting": "[3]; [5]", "result": "1 (7.1) n (%)"},
      {"measurement": "Influenza‐like illness", "setting": "[3]; [5]", "result": "0 n (%)"},
      {"measurement": "Musculoskeletal and connective tissue disorders", "setting": "[3]; [5]", "result": "1 (7.1) n (%)"},
      {"measurement": "Myalgia", "setting": "[3]; [5]", "result": "1 (7.1) n (%)"},
      {"measurement": "Nausea", "setting": "[3]; [5]", "result": "0 n (%)"},
      {"measurement": "Nervous system disorders", "setting": "[3]; [5]", "result": "1 (7.1) n (%)"},
      {"measurement": "Oropharyngeal pain", "setting": "[3]; [5]", "result": "1 (7.1) n (%)"},
      {"measurement": "Pain", "setting": "[3]; [5]", "result": "0 n (%)"},
      {"measurement": "Respiratory, thoracic, and mediastinal disorders", "setting": "[3]; [5]", "result": "1 (7.1) n (%)"},
      {"measurement": "Any TEAE", "setting": "[3]; [6]", "result": "9 (64.3) n (%)"},
      {"measurement": "Back pain", "setting": "[3]; [6]", "result": "0 n (%)"},
      {"measurement": "Disturbance in attention", "setting": "[3]; [6]", "result": "2 (14.3) n (%)"},
      {"measurement": "Eye disorders", "setting": "[3]; [6]", "result": "1 (7.1) n (%)"},
      {"measurement": "Fatigue", "setting": "[3]; [6]", "result": "1 (7.1) n (%)"},
      {"measurement": "Flatulence", "setting": "[3]; [6]", "result": "1 (7.1) n (%)"},
      {"measurement": "Flushing", "setting": "[3]; [6]", "result": "1 (7.1) n (%)"},
      {"measurement": "Gastroenteritis", "setting": "[3]; [6]", "result": "1 (7.1) n (%)"},
      {"measurement": "Gastrointestinal disorders", "setting": "[3]; [6]", "result": "1 (7.1) n (%)"},
      {"measurement": "General disorders and general administration‐site conditions", "setting": "[3]; [6]", "result": "1 (7.1) n (%)"},
      {"measurement": "Headache", "setting": "[3]; [6]", "result": "5 (35.7) n (%)"},
      {"measurement": "Hyperhidrosis", "setting": "[3]; [6]", "result": "0 n (%)"},
      {"measurement": "Infections and infestations", "setting": "[3]; [6]", "result": "1 (7.1) n (%)"},
      {"measurement": "Lacrimation increased", "setting": "[3]; [6]", "result": "1 (7.1) n (%)"},
      {"measurement": "Musculoskeletal and connective tissue disorders", "setting": "[3]; [6]", "result": "1 (7.1) n (%)"},
      {"measurement": "Myalgia", "setting": "[3]; [6]", "result": "1 (7.1) n (%)"},
      {"measurement": "Nasopharyngitis", "setting": "[3]; [6]", "result": "0 n (%)"},
      {"measurement": "Nervous system disorders", "setting": "[3]; [6]", "result": "8 (57.1) n (%)"},
      {"measurement": "Oropharyngeal pain", "setting": "[3]; [6]", "result": "1 (7.1) n (%)"},
      {"measurement": "Paresthesia", "setting": "[3]; [6]", "result": "1 (7.1) n (%)"},
      {"measurement": "Presyncope", "setting": "[3]; [6]", "result": "1 (7.1) n (%)"},
      {"measurement": "Rash", "setting": "[3]; [6]", "result": "0 n (%)"},
      {"measurement": "Respiratory, thoracic, and mediastinal disorders", "setting": "[3]; [6]", "result": "1 (7.1) n (%)"},
      {"measurement": "Skin and subcutaneous tissue disorders", "setting": "[3]; [6]", "result": "0 n (%)"},
      {"measurement": "Vascular disorders", "setting": "[3]; [6]", "result": "1 (7.1) n (%)"},
      {"measurement": "Vision blurred", "setting": "[3]; [6]", "result": "0 n (%)"},
      {"measurement": "moderate presyncope, subjects", "setting": "[3]; GLPG1205 alone", "result": 1, "unit": "n"},
      {"measurement": "moderate oropharyngeal pain, subjects", "setting": "[3]; GLPG1205 plus CYP450 substrates", "result": 1, "unit": "n"},
      {"measurement": "deaths or serious AEs", "setting": "[3]; during the study", "result": "no deaths or serious AEs"},
      {"measurement": "laboratory safety tests, ECG, vital signs, physical examination", "setting": "[3]; during the study", "result": "No clinically significant trends or abnormalities"}
    ]}
  ]
}
